Results from US11059832B2, “HPK1 inhibitors and methods of using same” (University Health Network, priority 2015, dated 2021).

Legend:
[1] = system: SLP-76 serine 376 phosphorylation in α-CD3 stimulated Jurkat E6.1 cells; test: In vitro phosphorylation assay, SLP-76 Ser376 (immunoblot); assay type: cell-based; conditions: Homo sapiens, 4 h pretreatment, substantive = >75% inhibition as estimated by immunoblot analysis, read-out: SLP76 S376 Phosphorylation Onset-Substantive* Inhibition
Protocol: Jurkat E6.1 cells were obtained from American Type Culture Collection (ATCC, Manassas, Va.), and maintained according to the supplier's instructions. Cells were washed three times and starved in RPMI 1640 medium supplemented with 0.5% fetal calf serum for 18 h at 37° C. Serum starved cells were pretreated with the indicated concentration of inhibitor for 4 hours before stimulation with 10 μg/ml α-CD3 antibody (BioLegend, Inc., San Diego, Calif.) for 10 min at 37° C. The cells were washed once in phosphate-buffered saline (pH 7.4) containing 10 mm sodium pyrophosphate, 10 mm sodium fluoride, 10 mm EDTA, and 1 mm sodium orthovanadate. Protein lysates were prepared using ice-cold radioimmunoprecipitation assay (RIPA) lysis buffer. A total of 100 μg of cell lysate was loaded onto Bis-Tris gels (Life Technologies, Carlsbad, Calif.) with full-range molecular weight marker as a size reference, and resolved by SDS-PAGE electrophoresis. Proteins were transferred to PVDF membrane (Millipore, Billerica, Mass.), blocked and probed with antibodies for phospho-SLP-76 (Ser376) (rabbit polyclonal #13177; Cell Signaling Technology Inc., Danvers, Mass.), SLP-76 (rabbit polyclonal #4958; Cell Signaling Technology Inc., Danvers, Mass.), phospho-ERK (mouse monoclonal sc-7383; Santa Cruz Biotechnology Inc., Santa Cruz, Calif.) and ERK1/2 (rabbit polyclonal 06-182; Millipore, Billerica, Mass.). Secondary antibodies were diluted 1 in 15,000 and incubated for 1 h at rt. Protein bands were visualized and quantified using Odyssey near infrared imager (LI-COR, Lincoln, Nebr.).
Table 2 below lists effects of representative compounds of the present invention against SLP-76 serine 376 phosphorylation and ERK1/2 T202/Y204 phosphorylation in α-CD3 stimulated Jurkat E6.1 cells.

human HPK1 (MAP4K1) = target: T1, human HPK1 (MAP4K1) (Homo sapiens, UniProt Q92918); test: HPK1 inhibition assay (indirect ELISA); assay type: biochemical; conditions: GST-HPK1 0.6 nM, 12 μM ATP; read-out: IC50 Range HPK1
T1 construct: human HPK1 (aa 1-346); purchased Invitrogen PV6355
T1 sequence (Q92918 1-346): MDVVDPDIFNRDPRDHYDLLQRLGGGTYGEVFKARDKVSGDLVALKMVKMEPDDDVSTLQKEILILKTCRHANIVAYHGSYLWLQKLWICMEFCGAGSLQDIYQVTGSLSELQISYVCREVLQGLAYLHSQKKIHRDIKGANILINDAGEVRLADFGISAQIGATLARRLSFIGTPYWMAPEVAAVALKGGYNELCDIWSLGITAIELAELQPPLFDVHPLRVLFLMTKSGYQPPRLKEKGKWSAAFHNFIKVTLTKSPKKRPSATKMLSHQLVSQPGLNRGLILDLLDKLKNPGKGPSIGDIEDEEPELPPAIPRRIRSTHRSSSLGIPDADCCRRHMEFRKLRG
Outline: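 GST-tagged human HPK1 (aa 1-346, 0.6 nM) phosphorylated MBP-coated wells with 12 μM ATP in MOPS pH 7.2/Mg2+ buffer for 30 min after 15-min compound preincubation; phospho-Thr detected by antibody ELISA with TMB, 450 nm. Tested at 10 μM or 10-point titration (typically 50-0.1 μM); IC50 by 4-parameter logistic fit.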

With CN1CCN(c2ccc3nc(-c4c(N)c5ccsc5[nH]c4=O)[nH]c3c2)CC1 [Example A1, 4-amino-5-(6-(4-methylpiperazin-1-yl)-1H-benzo[d]imidazol-2-yl)thieno[2,3-b]pyridin-6(7H)-one] the IC75 [1] was 0.3 to 1 µM and the IC50 (human HPK1 (MAP4K1)) was ≤ 0.05 µM.
